This test concerns the target T1, follicle stimulating hormone receptor (FSHR) (Homo sapiens, UniProt P23945).
T1 sequence (P23945 18-695): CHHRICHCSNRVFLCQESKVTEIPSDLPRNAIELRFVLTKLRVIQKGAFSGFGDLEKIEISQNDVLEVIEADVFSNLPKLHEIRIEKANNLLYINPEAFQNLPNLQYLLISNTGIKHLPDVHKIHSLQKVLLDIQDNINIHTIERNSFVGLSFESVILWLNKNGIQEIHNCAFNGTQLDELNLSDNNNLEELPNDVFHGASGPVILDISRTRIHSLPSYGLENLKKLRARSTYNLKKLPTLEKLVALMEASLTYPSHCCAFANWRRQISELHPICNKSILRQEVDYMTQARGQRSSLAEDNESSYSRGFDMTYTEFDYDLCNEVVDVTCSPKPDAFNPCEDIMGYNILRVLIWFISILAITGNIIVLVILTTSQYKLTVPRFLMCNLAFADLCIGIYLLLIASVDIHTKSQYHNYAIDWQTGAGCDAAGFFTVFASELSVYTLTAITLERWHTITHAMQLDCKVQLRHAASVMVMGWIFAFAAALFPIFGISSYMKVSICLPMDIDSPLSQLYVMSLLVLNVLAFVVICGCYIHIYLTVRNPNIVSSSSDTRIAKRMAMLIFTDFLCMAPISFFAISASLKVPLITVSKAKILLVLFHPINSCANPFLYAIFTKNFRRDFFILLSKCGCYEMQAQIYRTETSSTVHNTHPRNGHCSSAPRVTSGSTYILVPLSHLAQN
The test is described as follows: isothermal titration calorimetry (Nano ITC, […] BPS into […] FSHR, sequential two-site model). The conditions noted are these: read-out: Value for specific binding site. (In ITC the heat of successive injections is recorded.)

Turning to `O=S(=O)(c1ccc(O)cc1)c1ccc(O)cc1` [BPS, bisphenol S], the Kd worked out at 183 µM.
